In patent US10294202B2, “Pyrrolidinones as herbicides” (FMC Corporation, priority 2013, dated 2019):

Legend:
[1] = test system: barnyardgrass; test: Test A pre-/postemergence herbicide test; type: in vivo, Echinochloa crus-galli
Method in brief: (§1)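 Approximately 10 days after treatment in the greenhouse, plants were compared with untreated controls and given a 0–100 visual injury rating. Applications: preemergence directed soil spray; postemergence on 2–10 cm plants at the one- to two-leaf stage.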

[2] = test system: giant foxtail; test: Test A pre-/postemergence herbicide test; type: in vivo, Setaria faberii
Method in brief: as §1

[3] = test system: corn; test: Test A pre-/postemergence herbicide test; type: in vivo, Zea mays; conditions: Postemergence
Method in brief: as §1

[4] = test system: ducksalad; test: Test B flooded paddy test; type: in vivo, Heteranthera limosa; conditions: 500 g ai/ha, Flood; scale of 0 to 100 where 0 is no effect and 100 is complete control
Method in brief: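 2-leaf plants; flood 3 cm over soil; compound into paddy water; depth held. Greenhouse 13–15 d. Visual rating vs controls, 0 (no effect) to 100 (complete control); dash = not tested.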

[5] = test system: ryegrass, Italian; test: Test C pre-/postemergence herbicide test; type: in vivo, Lolium multiflorum
Method in brief: (§2)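 Plants grown and held in a greenhouse for 13 to 15 days post-spray, then rated 0–100 by visual comparison with controls. Pre treatments targeted seeds in loam and sand; post treatments targeted 1- to 4-leaf plants in peat-based potting medium.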

[6] = test system: corn; test: Test C pre-/postemergence herbicide test; type: in vivo, Zea mays
Method in brief: as §2

[7] = test system: lambsquarters; test: Test C pre-/postemergence herbicide test; type: in vivo, Chenopodium album
Method in brief: as §2

[8] = test system: nutsedge, yellow; test: Test C pre-/postemergence herbicide test; type: in vivo, Cyperus esculentus
Method in brief: as §2

[9] = test system: soybean; test: Test C pre-/postemergence herbicide test; type: in vivo, Glycine max
Method in brief: as §2

[10] = test system: barnyardgrass; test: Test C pre-/postemergence herbicide test; type: in vivo, Echinochloa crus-galli
Method in brief: as §2

[11] = test system: waterhemp; test: Test C pre-/postemergence herbicide test; type: in vivo, Amaranthus rudis
Method in brief: as §2

[12] = Postemergence, 125 g ai/ha, visual rating on 0 to 100 scale (0 no effect, 100 complete control), approx. 10 days
[13] = Postemergence, 500 g ai/ha, 0 to 100 scale (0 no effect, 100 complete control)
[14] = Preemergence, 125 g ai/ha, 0 to 100 scale where 0 is no effect and 100 is complete control
[15] = Preemergence, 500 g ai/ha, visual rating on 0 to 100 scale (0 no effect, 100 complete control)
[16] = 125 g ai/ha, visual rating on 0 to 100 scale (0 no effect, 100 complete control), approx. 10 days
[17] = 500 g ai/ha, 0 to 100 scale (0 no effect, 100 complete control)
[18] = Postemergence, 31 g ai/ha, scale 0 to 100 (0 no effect, 100 complete control)
[19] = Postemergence, 62 g ai/ha, scale 0 (no effect) to 100 (complete control)
[20] = Postemergence, 125 g ai/ha, scale 0 to 100 (0 no effect, 100 complete control)
[21] = Postemergence, 250 g ai/ha, scale 0 to 100 (0 no effect, 100 complete control)
[22] = Preemergence, 62 g ai/ha, scale 0 to 100 (0 no effect, 100 complete control)
[23] = Preemergence, 125 g ai/ha, scale 0 to 100
[24] = Preemergence, 31 g ai/ha, scale 0 to 100, 0 is no effect and 100 is complete control
[25] = Preemergence, 125 g ai/ha, scale 0 to 100 (0 no effect, 100 complete control)

## O=C1NCC(c2cccc(C(F)(F)F)c2)C1C(=O)Nc1cccc(Cl)c1F (centres unmarked) [Compound 316]
[1]; [12]
  Plant response rating, Barnyardgrass: 80
[1]; [13]
  Plant response rating, Barnyardgrass: 90
[1]; [14]
  Plant response rating, Barnyardgrass: 80
[1]; [15]
  Barnyardgrass plant response rating: 90
[2]; [12]
  Plant response rating, Foxtail, Giant: 90
[2]; [13]
  Plant response rating, Foxtail, Giant: 90
[2]; [14]
  Plant response rating, Foxtail, Giant: 90
[2]; [15]
  Foxtail, Giant plant response rating: 90
[3]; [16]
  Plant response rating, Corn: 60
[3]; [17]
  Plant response rating, Corn: 80
[4]
  Plant response rating, Ducksalad: 100
[5]; [18]
  Plant response rating, Ryegrass, Italian: 0
[5]; [19]
  Plant response rating, Ryegrass, Italian: 0
[5]; [20]
  Plant response rating, Ryegrass, Italian: 0
[5]; [21]
  Plant response rating, Ryegrass, Italian: 5
[5]; [22]
  Ryegrass, Italian plant response rating: 0
[5]; [23]
  Plant response rating, Ryegrass, Italian: 10
[6]; [18]
  Plant response rating, Corn: 0
[6]; [19]
  Plant response rating, Corn: 0
[6]; [20]
  Plant response rating, Corn: 0
[6]; [21]
  Plant response rating, Corn: 0
[6]; [24]
  Corn plant response rating: 15
[6]; [22]
  Corn plant response rating: 75
[6]; [23]
  Plant response rating, Corn: 65
[6]; Preemergence, 250 g ai/ha
  Plant response rating (scale of 0 to 100), Corn: 75
[7]; [18]
  Plant response rating, Lambsquarters: 55
[7]; [19]
  Plant response rating, Lambsquarters: 65
[7]; [20]
  Plant response rating, Lambsquarters: 40
[7]; [21]
  Plant response rating, Lambsquarters: 65
[7]; [24]
  Lambsquarters plant response rating: 0
[7]; [22]
  Lambsquarters plant response rating: 20
[7]; [23]
  Plant response rating, Lambsquarters: 65
[7]; Preemergence, 250 g ai/ha
  Plant response rating (scale of 0 to 100), Lambsquarters: 65
[8]; [18]
  Plant response rating, Nutsedge, Yellow: 0
[8]; [19]
  Plant response rating, Nutsedge, Yellow: 0
[8]; [20]
  Plant response rating, Nutsedge, Yellow: 0
[8]; [21]
  Plant response rating, Nutsedge, Yellow: 0
[8]; [24]
  Nutsedge, Yellow plant response rating: 0
[8]; [22]
  Nutsedge, Yellow plant response rating: 0
[8]; [23]
  Plant response rating, Nutsedge, Yellow: 0
[8]; Preemergence, 250 g ai/ha
  Plant response rating (scale of 0 to 100), Nutsedge, Yellow: 70
[9]; [18]
  Plant response rating, Soybean: 0
[9]; [19]
  Plant response rating, Soybean: 0
[9]; [20]
  Plant response rating, Soybean: 0
[9]; [21]
  Plant response rating, Soybean: 0
[9]; [22]
  Soybean plant response rating: 0
[9]; [23]
  Plant response rating, Soybean: 0
[10]; [18]
  Plant response rating, Barnyardgrass: 10
[10]; [19]
  Plant response rating, Barnyardgrass: 35
[10]; [20]
  Plant response rating, Barnyardgrass: 60
[10]; [21]
  Plant response rating, Barnyardgrass: 70
[10]; [24]
  Barnyardgrass plant response rating: 85
[10]; [22]
  Barnyardgrass plant response rating: 85
[10]; [25]
  Plant response rating, Barnyardgrass: 90
[10]; Preemergence, 250 g ai/ha
  Plant response rating (scale of 0 to 100; 0 is no effect, 100 is complete control), Barnyardgrass: 90
[11]; [18]
  Plant response rating, Waterhemp: 10
[11]; [19]
  Plant response rating, Waterhemp: 10
[11]; [20]
  Plant response rating, Waterhemp: 10
[11]; [21]
  Plant response rating, Waterhemp: 55
[11]; [22]
  Waterhemp plant response rating: 35
[11]; [23]
  Plant response rating, Waterhemp: 35

## Cc1cccc(NC(=O)C2C(=O)NCC2c2cccc(C(F)(F)F)c2)c1 (centres unmarked) [Compound 317]
[1]; [12]
  Plant response rating, Barnyardgrass: 80
[1]; [13]
  Plant response rating, Barnyardgrass: 90
[1]; [14]
  Plant response rating, Barnyardgrass: 90
[1]; [15]
  Barnyardgrass plant response rating: 90
[2]; [12]
  Plant response rating, Foxtail, Giant: 80
[2]; [13]
  Plant response rating, Foxtail, Giant: 90
[2]; [14]
  Plant response rating, Foxtail, Giant: 90
[2]; [15]
  Foxtail, Giant plant response rating: 90
[3]; [16]
  Plant response rating, Corn: 0
[3]; [17]
  Plant response rating, Corn: 20
[4]
  Plant response rating, Ducksalad: 80
[5]; [18]
  Plant response rating, Ryegrass, Italian: 0
[5]; [19]
  Plant response rating, Ryegrass, Italian: 0
[5]; [20]
  Plant response rating, Ryegrass, Italian: 0
[5]; [21]
  Plant response rating, Ryegrass, Italian: 0
[5]; [22]
  Ryegrass, Italian plant response rating: 0
[5]; [23]
  Plant response rating, Ryegrass, Italian: 0
[6]; [18]
  Plant response rating, Corn: 0
[6]; [19]
  Plant response rating, Corn: 0
[6]; [20]
  Plant response rating, Corn: 0
[6]; [21]
  Plant response rating, Corn: 0
[6]; [24]
  Corn plant response rating: 0
[6]; [22]
  Corn plant response rating: 0
[6]; [23]
  Plant response rating, Corn: 25
[6]; Preemergence, 250 g ai/ha
  Plant response rating (scale of 0 to 100), Corn: 30
[7]; [18]
  Plant response rating, Lambsquarters: 0
[7]; [19]
  Plant response rating, Lambsquarters: 0
[7]; [20]
  Plant response rating, Lambsquarters: 25
[7]; [21]
  Plant response rating, Lambsquarters: 25
[7]; [24]
  Lambsquarters plant response rating: 0
[7]; [22]
  Lambsquarters plant response rating: 0
[7]; [23]
  Plant response rating, Lambsquarters: 0
[7]; Preemergence, 250 g ai/ha
  Plant response rating (scale of 0 to 100), Lambsquarters: 10
[8]; [18]
  Plant response rating, Nutsedge, Yellow: 0
[8]; [19]
  Plant response rating, Nutsedge, Yellow: 0
[8]; [20]
  Plant response rating, Nutsedge, Yellow: 0
[8]; [21]
  Plant response rating, Nutsedge, Yellow: 0
[8]; [24]
  Nutsedge, Yellow plant response rating: 0
[8]; [22]
  Nutsedge, Yellow plant response rating: 0
[8]; [23]
  Plant response rating, Nutsedge, Yellow: 20
[8]; Preemergence, 250 g ai/ha
  Plant response rating (scale of 0 to 100), Nutsedge, Yellow: 70
[9]; [18]
  Plant response rating, Soybean: 0
[9]; [19]
  Plant response rating, Soybean: 0
[9]; [20]
  Plant response rating, Soybean: 0
[9]; [21]
  Plant response rating, Soybean: 0
[9]; [22]
  Soybean plant response rating: 0
[9]; [23]
  Plant response rating, Soybean: 0
[10]; [18]
  Plant response rating, Barnyardgrass: 0
[10]; [19]
  Plant response rating, Barnyardgrass: 0
[10]; [20]
  Plant response rating, Barnyardgrass: 25
[10]; [21]
  Plant response rating, Barnyardgrass: 70
[10]; [24]
  Barnyardgrass plant response rating: 90
[10]; [22]
  Barnyardgrass plant response rating: 90
[10]; [25]
  Plant response rating, Barnyardgrass: 95
[10]; Preemergence, 250 g ai/ha
  Plant response rating (scale of 0 to 100; 0 is no effect, 100 is complete control), Barnyardgrass: 95
[11]; [18]
  Plant response rating, Waterhemp: 0
[11]; [19]
  Plant response rating, Waterhemp: 0
[11]; [20]
  Plant response rating, Waterhemp: 20
[11]; [21]
  Plant response rating, Waterhemp: 0
[11]; [22]
  Waterhemp plant response rating: 0
[11]; [23]
  Plant response rating, Waterhemp: 10
